# From the supplement of paper PMC10331698
# ± gives the standard deviation of the averaged measurements.
# What was measured:
# Experiment in all cases: level (log10 ratio to DMSO vehicle control); higher = higher biomarker level / cell amount than vehicle control
# [1] = compound: C=C(C)C(=O)OCCC(F)(F)C(F)(F)C(F)(F)C(F)(F)C(F)(F)C(F)(F)C(F)(F)C(F)(F)F [8:2 Fluorotelomer methacrylate] (in DMSO)
# Protocol: (§1)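 BioMAP Diversity Plus panel of 12 human primary cell co-culture systems (3C, 4H, LPS, SAg, BT, BF4T, BE3C, CASM3C, HDF3CGF, KF3CT, MyoF, Mphg). Compounds were added 1 h before stimulation and left for 24 h (MyoF 48 h; BT 72 h for soluble read-outs or 6 d for IgG). Biomarkers were read by ELISA, cytotoxicity by SRB, PBMC viability and proliferation by Alamar Blue. Each well value was divided by the mean of 8 DMSO control wells on the same plate and log10 transformed; duplicate blinded samples were tested at 4 concentrations.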
# [2] = compound: CN(C(=O)C(F)(F)C(F)(F)C(F)(F)F)[Si](C)(C)C [N-Methyl-N-trimethylsilylheptafluorobutyramide] (in DMSO)
# Protocol: as §1
# [3] = compound: O=C(O)C=C(C(F)(F)F)C(F)(F)F [3,3-Bis(trifluoromethyl)-2-propenoic acid] (in DMSO)
# Protocol: as §1
# [4] = compound: O=S(=O)(O)C(F)(F)C(F)(F)C(F)(F)C(F)(F)C(F)(F)C(F)(F)C(F)(F)F [Perfluoroheptanesulfonic acid] (in DMSO)
# Protocol: as §1
# [5] = compound: OCC(F)(F)OC(F)(F)C(F)(F)OC(F)(F)C(F)(F)OC(F)(F)CO [1H,1H,11H,11H-Perfluorotetraethylene glycol] (in DMSO)
# Protocol: as §1
# [6] = compound: OCCC(F)(F)C(F)(F)C(F)(F)C(F)(F)F [4:2 Fluorotelomer alcohol] (in DMSO)
# Protocol: as §1
Test System,level (log10) ([1]; 6700 nM),level (log10) ([1]; 20000 nM),level (log10) ([2]; 6700 nM),level (log10) ([2]; 20000 nM),level (log10) ([2]; 60000 nM),level (log10) ([3]; 6700 nM),level (log10) ([3]; 20000 nM),level (log10) ([3]; 60000 nM),level (log10) ([4]; 1500 nM),level (log10) ([4]; 4400 nM),level (log10) ([4]; 13000 nM),level (log10) ([4]; 40000 nM),level (log10) ([5]; 6700 nM),level (log10) ([5]; 20000 nM),level (log10) ([5]; 60000 nM),level (log10) ([6]; 6700 nM),level (log10) ([6]; 20000 nM),level (log10) ([6]; 60000 nM)
BE3C:CD87/uPAR,-0.0135 ± 0.023,0.0015 ± 0.036,0.0055 ± 0.016,0.0275 ± 0.019,0.0275 ± 0.026,-0.0365 ± 0.025,-0.0635 ± 0.013,-0.012 ± 0.013,0.017 ± 0.024,-0.0045 ± 0.015,-0.0065 ± 0.03,0.05 ± 0.069,0.0025 ± 0.0078,0.01 ± 0.0071,-0.0355 ± 0.0078,0.005 ± 0.0099,-0.0025 ± 0.0064,0.0145 ± 0.0021
3C:CD87/uPAR,0.046 ± 0.018,0.049 ± 0.013,-0.0105 ± 0.0021,-0.0155 ± 0.0078,-0.007 ± 0.0042,0.0225 ± 0.0035,0.014 ± 0.02,-0.0035 ± 0.013,0.0655 ± 0.0078,0.0535 ± 0.021,0.0485 ± 0.044,0.0565 ± 0.064,0.008 ± 0.03,-0.007 ± 0.023,-0.0005 ± 0.011,-0.015 ± 0.014,-0.0215 ± 0.028,0.005 ± 0.0071
BE3C:CXCL10/IP-10,-0.0005 ± 0.018,-0.0105 ± 0.028,-0.006 ± 0.0028,0.005 ± 0.0014,0.007 ± 0.011,-0.022 ± 0.027,-0.0195 ± 0.026,-0.0295 ± 0.00071,0.0075 ± 0.0035,0.0055 ± 0.0078,-0.01 ± 0.024,-0.039 ± 0.016,-0.012 ± 0.0028,-0.0315 ± 0.021,-0.167 ± 0.028,-0.009 ± 0.021,0.002 ± 0.016,-0.0015 ± 0.0035
BF4T:CD54/ICAM-1,-0.023 ± 0.0099,0.001 ± 0.0099,-0.0145 ± 0.0064,-0.0045 ± 0.023,-0.0115 ± 0.00071,-0.0195 ± 0.005,-0.0205 ± 0.005,-0.0075 ± 0.013,0.009 ± 0.011,0.004 ± 0.017,-0.0155 ± 0.0035,0.0125 ± 0.016,-0.002 ± 0.023,-0.03 ± 0.0014,-0.0815 ± 0.0064,-0.0055 ± 0.025,0.0135 ± 0.03,-0.003 ± 0.034
SAg:CXCL8/IL-8,-0.0215 ± 0.047,0.007 ± 0.021,-0.0015 ± 0.018,-0.0385 ± 0.019,-0.007 ± 0.035,-0.0225 ± 0.025,-0.101 ± 0.023,-0.227 ± 0.084,0.0205 ± 0.12,-0.04 ± 0.075,-0.001 ± 0.045,0.0455 ± 0.047,-0.0225 ± 0.069,-0.061 ± 0.072,-0.209 ± 0.005,-0.017 ± 0.0071,-0.018 ± 0.016,0.018 ± 0.034
LPS:sPGE2,-0.038 ± 0.013,-0.058 ± 0.048,0.0035 ± 0.011,0.0095 ± 0.044,-0.023 ± 0.057,-0.0855 ± 0.016,-0.09 ± 0.021,-0.106 ± 0.016,0.018 ± 0.024,0.0045 ± 0.016,0.0175 ± 0.0064,0.005 ± 0.024,0.032 ± 0.034,0.0965 ± 0.0078,0.056 ± 0.011,-0.008 ± 0.025,-0.0115 ± 0.044,-0.0105 ± 0.025
LPS:CXCL8/IL-8,-0.037 ± 0.05,-0.0225 ± 0.076,0.008 ± 0.0028,0.0245 ± 0.018,0.016 ± 0.052,-0.052 ± 0.0099,-0.047 ± 0.037,-0.007 ± 0.069,0.015 ± 0.0071,-0.038 ± 0.0014,-0.0185 ± 0.033,0.031 ± 0.09,-0.0025 ± 0.00071,-0.01 ± 0.0057,-0.02 ± 0.011,-0.0255 ± 0.015,-0.0005 ± 0.0078,-0.005 ± 0.024
